Results published in patent US20240197890A1, “FLAVONE DERIVATIVES AND USES IN TARGETING CK2-MEDIATED DISEASES AND CONDITIONS” (Salk Institute for Biological Studies, priority 2020, published 2024).

What was measured:
CK2 [1] = experiment: Target engagement in mouse brain homogenates (Cyclex CK2 ELISA kit); type: in vivo; conditions: single dose 25.6 mg/kg i.p., in comparison to FNH79
Method: Animals. All animal procedures were approved by the Institutional Animal Care and Use Committee of The Salk Institute for Biological Studies. Wildtype male C57BL/6 mice (2-3 months old) were housed under standard 12-h light/dark cycles with free access to food and water. IN2.2 or vehicle (3% hydroxypropylmethylcellulose, HPMC) was injected as a single dose (25.6 mg/kg) i.p. mice (n=6 and n=3 controls). Blood was collected at t=0, 0.5, 1, 2, 4, 8, 24 via retro-orbital bleeding and allowed to clot at room temperature to separate serum and clarified. At the final timepoint, mice were anesthetized with ketamine and tissues were harvested. Drug concentrations in serum and tissues were determined by LC/MS-MS. Target engagement in the brain was determined in brain homogenates from treated animals using the Cyclex CK2 ELISA kit. […] Tolerability was assessed mice (mean±s.d., n=5) by injecting with JKT56/IN3.2 daily at 20 mg/kg and monitoring closely for any signs of toxicity based on body weight changes and behavior/appearance (e.g. signs of distress, rough coat, squinty eyes, hunched posture).
IN2.2 or vehicle (3% wt/wt hydroxpropymethylcellulose aqueous solution) was injected as a single dose (25.6 mg/kg) i.p. in 2-3 month old C57Bl/6Nhsd mice (n=6 and n=3 controls). […] Drug concentrations in serum and tissues were determined by LC/MS-MS. […]

BBB organoids = experiment: BBB permeability and anti-inflammatory activity in BBB organoids; type: cell-based; conditions: 6.7 μM, 3 days, compared to FNH79 at 20 μM
Method: BBB permeability of IN2.2 was also determined in BBB organoids (Cho et al., Nat Commun 2017, 8:15623). Pools of -50 organoids were treated for 3 days with IL1-β and DMSO or compounds (FNH79 at 20 μM, IN2.2 at 6.7 μM) and collected in RNA-Bee reagent (Amsbio). qPCR for IL6 and IL8 expression was performed (mean±s.d., n=3).

[2] = test system: IL6 and IL8 expression in astrocytes; experiment: Activation assay, ddPCR of cytokine expression in IL1-β-activated astrocytes; type: cell-based, human; conditions: 5 h treatment
Method: Activation assays and ddPCR. HCA or H1-derived astrocytes were treated with vehicle (DMSO) or 20 μM compound and stimulated with IL1-B 10 ng/mL for 5 h. Cells were scraped into RNA-Bee and total RNA was purified using the Direct-zol RNA kit (Zymo Research). RNA concentration was measured using Nanodrop and RNA was reverse transcribed into cDNA using the High Capacity cDNA Reverse Transcriptase Kit (Applied Biosystems). Reaction mixes consisting of TaqMan FAM probe (IL6, IL8, CSNK2A1, CSNK2A2), control TaqMan ACTB-VIC probe (TFS 4326315E), ddPCR Supermix for Probes (Bio-Rad 186-3024), and cDNA were formed into oil droplets using the QX200 Droplet Generator. After amplification (Bio-Rad C1000 Touch Thermal Cycler) according to manufacturer's instructions, the plate was read in the QX200 Droplet Reader.

IκB S32 = experiment: Immunoblot of IκB S32 in IL1-β-stimulated astrocytes; type: cell-based, human; conditions: after 5 hours
Method: Western blotting. […] Cells were dissociated with 1:1 Accutase:papain for 3 min at rt, pelleted for 5 min at 800 g, and washed twice with cold DPBS. Pellets were lysed with RIPA buffer (Sigma R0278) supplemented with Halt protease inhibitor cocktail (Thermo Fisher 78445) and clarified by centrifugation (16,000 g, 10 min, 4° C.). Protein concentration was determined by BCA assay (Thermo Fisher). Proteins were denatured in 1×LDS Buffer and 2.5% beta-mercaptoethanol (X) for 10 min at 70° C., separated on Bolt 4-12% Bis-Tris Plus polyacrylamide gels (Thermo Fisher), transferred to PVDF membranes using the iBlot 2 Dry Blotting System, and blocked with 0.1% casein-PBS (Bio-Rad) for 1 h at room temperature. The blots were incubated with primary antibodies overnight at 4° C. in PBS containing 0.1% casein and 0.2% Tween-20. Antibodies used: rabbit anti-CK2a1 (Bethyl #, 1:5000), rabbit anti-CK2a2 (Bethyl #, 1:5000), mouse anti-GAPDH (Fitzgerald #10-1501, 1:20,000), mouse anti-NF-KB (CST #6956S, 1:1000), pNF-KB S529 (TFS #14-9864-82, 1:100), LC3B (CST 2775, 1:1000), ACO2 (CST 6922, 1:1000), rabbit HMGB1 (Novus #NB1002322, 1:1000), mouse anti-IκBα (CST #4814S, 1:1000), mouse anti-IκBa pS32 (SC #8404, 1:500), HA-tag (Bethyl #A190-108A, 1:20000). […] The blots were imaged using the Odyssey CLx imaging system and blots were analyzed on the ImageStudio software (LI-COR). […]

NF-κB pS529 = experiment: Immunofluorescence of NF-κB and NF-κB pS529 in activated astrocytes; type: cell-based, human
Method: Immunotluorescence. […] After treatment, cells were fixed with 4% paraformaldehyde solution for 20 min at room temperature and washed 3× with DPBS for 10 min each. The cells were permeabilized using 5% horse serum and 10% Triton X in DPBS for 15 min at room temperature and blocked with 5% horse serum in PBS for 30 min at room temperature. Cells were incubated with primary antibodies in blocking buffer either overnight at 4° C. or for 2 hours at room temperature. After incubation, cells were washed 3× with PBS, blocked using 5% horse serum in PBS for 30 min at room temperature, and incubated with Cy3 red-labeled or AF488 green-labeled secondary antibodies diluted in blocking buffer for 1 hour at room temperature. The cells were washed once with PBS for 10 min, then counter-stained with DAPI. The cells were washed 3× with PBS and mounted with glass coverslips and Immu-Mount solution. Images were obtained with the Zeiss fluorescent microscope. The following primary antibodies were used: rabbit anti-NF-κB (1:400; CST), mouse anti-phospho NF-κB S529 (20 ug/ml; Thermo Fisher), rabbit anti-CK2A1 (1:500; Bethyl), mouse anti-IKb alpha (1:400; CST), mouse anti-phospho IKb alpha (1:50; Santa Cruz), rabbit anti-phospho CK2A1 (1:25; Thermo Fisher), rabbit anti-phospho Cdc37 (1:50; Novus), mouse anti-phospho NF-κB S529 (1:25; R&D), rabbit anti-Cdc37 (1:100; CST), mouse anti-SQSTM1 (1:50; Santa Cruz), anti rabbit-phospho NF-κB S536 (1:1600; CST), anti rabbit-Akt (pan) (1:400; CST), anti mouse-phospho Akt S473 (1:500; Sigma).
To investigate the potential effects of CK2 activity on NF-κB, NF-κB and NF-κB pS529 were measured by immunofluorescence in activated astrocytes. […] At this timepoint, NF-κB pS529 levels were similar across all treatments, possibly as a result of slower turnover by pNF-κB species.

AKT pS473 = experiment: Immunofluorescence of AKT pS473 in IL1β-stimulated primary astrocytes; type: cell-based; conditions: IL1-β for 5 h
Method: (§1) Immunotluorescence. […] After treatment, cells were fixed with 4% paraformaldehyde solution for 20 min at room temperature and washed 3× with DPBS for 10 min each. The cells were permeabilized using 5% horse serum and 10% Triton X in DPBS for 15 min at room temperature and blocked with 5% horse serum in PBS for 30 min at room temperature. Cells were incubated with primary antibodies in blocking buffer either overnight at 4° C. or for 2 hours at room temperature. After incubation, cells were washed 3× with PBS, blocked using 5% horse serum in PBS for 30 min at room temperature, and incubated with Cy3 red-labeled or AF488 green-labeled secondary antibodies diluted in blocking buffer for 1 hour at room temperature. The cells were washed once with PBS for 10 min, then counter-stained with DAPI. The cells were washed 3× with PBS and mounted with glass coverslips and Immu-Mount solution. Images were obtained with the Zeiss fluorescent microscope. […]

CK2 Y255 = experiment: Immunofluorescence of CK2 Y255 phosphorylation in nuclei of primary human astrocytes; type: cell-based; conditions: 20 μM, 5 h
Method: as §1

CK2 [3] = experiment: CK2 kinase assay in postmortem brain lysates (Csox peptide); type: biochemical, human; conditions: pretreatment with 20 μM for 30 min
Method: Kinase assays. In vitro kinase assays were run using the Cysteine-Sox-Kinase Sensor AQT0696, 96 assay Kit (AssayQuant Tech, CSKS-AQT0696). Compound stocks (1.25×) at concentrations in a 2-fold dilution series were prepared in kinase reaction mixes and added in duplicate to a 384-well white-bottom NBS plates (Corning X) at 20 μL/well. Then, 5 μL active recombinant human CK2a1 kinase (Thermo Fisher PV3248, 5× in Kinase Dilution Buffer) was added to each well, quickly mixed by rotation, and incubated for 5 h at 30° C., with fluorescence readings taken every 3 min (excitation λ=365 nm, emission λ=495-505 nm) on a Promega GloMax Discover Microplate Reader. The final reaction conditions contained 10 μM AQT0696 Csox peptide, 1 mM ATP, 54 mM HEPES pH 7.5, 1.2 mM DTT, 0.012% Brij-35, 0.52 mM EGTA, 1% glycerol, 0.2 mg/mL BSA, 10 mM MgCl2, and 20 nM CK2a1. Slopes corresponding to linear reaction rates were obtained for each compound concentration (RFU/sec), normalized to DMSO controls, and IC50 values were determined by applying the dose response non-linear regression model in GraphPad Prism. […] After sonication and clarification, protein concentration was measured by BCA Assay. CK2 activity was measured as described above, except lysates were used instead of purified kinase at 2 μL/well (˜0.3-0.4 ug protein per reaction). […]

468 human kinases = conditions: testing concentration of 1 μM; cited from earlier work

SMILES	target engagement in brain (CK2 [1])	IL6 and IL8 expression (BBB organoids; IL1-β)	BBB permeability (BBB organoids)	expression of IL6 and IL8 in IL1-β-activated astrocytes [2]	IκB S32 levels (IκB S32)	IL1-β-induced increase of NF-κB nuclear intensity (NF-κB pS529; after 1 h)	pNF-κB nuclear intensity relative to total NF-κB (NF-κB pS529; after 5 hours)	AKT pS473 levels (AKT pS473)	pCK2/CK2 in nuclei (CK2 Y255)	CK2-specific fluorescence of phosphorylated Csox peptide in brain lysates (CK2 [3])	number of other kinases inhibited >90% (468 human kinases)
COc1cc(-c2cc(=O)c3cc(Br)cc(Br)c3o2)ncc1O [IN2.2]	superior target engagement	reduction	superior permeability								
O=C(O)c1ccc2c(c1)nc(Nc1cccc(Cl)c1)c1ccncc12 [CX4945]				successfully blocked	decreased	blocked	reduced	reduced	reduced	blocked	28
